# Results: ChEMBL document CHEMBL1649464, “Galleria mellonella as a model system to study Acinetobacter baumannii pathogenesis and therapeutics” (2009)
# Activity calls are given as the source filed them. The rule behind the calls is not given here.
# Tests used:
# Acinetobacter baumannii [1] = experiment: Antibacterial activity against Acinetobacter baumannii A9844 infected in Galleria mellonella caterpillar assessed as prolonged survival rate at 50 mg/kg administered as single dose; type: functional, organism-based; set-up: dose 50 mg/kg
# Acinetobacter baumannii [2] = experiment: Antibacterial activity against Acinetobacter baumannii A9844 infected in Galleria mellonella caterpillar assessed as prolonged survival rate at 150 mg/kg administered as single dose; type: functional, organism-based; set-up: dose 150 mg/kg
# Acinetobacter baumannii [3] = experiment: Antibacterial activity against Acinetobacter baumannii A9844 infected in Galleria mellonella caterpillar assessed as prolonged survival rate at 60 mg/kg administered as single dose; type: functional, organism-based; set-up: dose 60 mg/kg
# Acinetobacter baumannii [4] = experiment: Antibacterial activity against carbapenem-resistant Acinetobacter baumannii A3587 infected in Galleria mellonella caterpillar assessed as prolonged survival rate at 60 mg/kg administered as single dose; type: functional
# Acinetobacter baumannii [5] = experiment: Antibacterial activity against Acinetobacter baumannii A9844 infected in Galleria mellonella caterpillar assessed as prolonged survival rate at 6 mg/kg administered as single dose; type: functional, organism-based; set-up: dose 6 mg/kg
compound,measurement,setting,value
CN(C)[C@@H]1C(O)=C(C(N)=O)C(=O)[C@@]2(O)C(O)=C3C(=O)c4c(O)cccc4[C@@](C)(O)[C@H]3C[C@@H]12,Activity,Acinetobacter baumannii [1],inactive
CO/N=C(\C(=O)N[C@@H]1C(=O)N2C(C(=O)O)=C(COC(C)=O)CS[C@H]12)c1csc(N)n1,Activity,Acinetobacter baumannii [2],inactive
C[C@@H](O)[C@H]1C(=O)N2C(C(=O)O)=C(S[C@@H]3CN[C@H](C(=O)N(C)C)C3)[C@H](C)[C@H]12 [MEROPENEM],Activity,Acinetobacter baumannii [3],Active
same,Activity,Acinetobacter baumannii [4],<=12%
GENTAMICIN,Activity,Acinetobacter baumannii [5],Active
